Results published in patent publication US20140315886A1, “QUINAZOLINES AS THERAPEUTIC COMPOUNDS AND RELATED METHODS OF USE” (OTSUKA PHARMACEUTICAL CO., LTD., priority 2011, published 2014).
Where a name gives a salt, the structure may show the parent alone.

The compounds below were run against T1, purified STEP46 enzyme (Homo sapiens, UniProt P54829) (assay: STEP46 biochemical assay (DiFMUP fluorescence phosphatase assay)). Conditions: DiFMUP 10 μM, read-out: STEP IC50.
T1 sequence (P54829 197-565 limits assumed): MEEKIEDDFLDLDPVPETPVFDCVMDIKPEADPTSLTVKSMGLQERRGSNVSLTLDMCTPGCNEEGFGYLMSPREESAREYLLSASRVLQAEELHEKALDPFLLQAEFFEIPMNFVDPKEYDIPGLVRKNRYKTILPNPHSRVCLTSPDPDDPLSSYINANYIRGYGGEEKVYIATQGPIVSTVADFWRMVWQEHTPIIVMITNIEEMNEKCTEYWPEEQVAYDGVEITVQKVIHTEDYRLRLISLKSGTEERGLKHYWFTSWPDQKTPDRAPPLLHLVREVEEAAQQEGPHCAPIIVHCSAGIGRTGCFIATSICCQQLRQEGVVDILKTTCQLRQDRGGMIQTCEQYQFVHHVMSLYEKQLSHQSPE
How it was run: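 Purified human STEP46 preincubated 30 min at room temperature with compounds in Hepes/DTT/Brij35 buffer (2% DMSO final), then reacted with 10 μM DiFMUP for 90 min at 27°C; fluorescence read at 360/460 nm. IC50 from four-parameter fit; activation shown as negative % inhibition at 25, 50, 100 uM.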

`Fc1ccc(CNc2nc(-c3cccnc3)nc3ccc(-c4cccc(F)c4F)cc23)cc1F` [Compound 361] and `FCCNc1nc(-c2cccnc2)nc2ccc(-c3cccc(F)c3F)cc12` [Compound 406] cannot be ordered by IC50: over 10 µM for the first, over 10 µM for the second.

First: CC(Nc1nc(-c2cccnc2)nc2ccc(-c3ccccc3F)cc12)c1ccccn1 (centres unmarked) [Compound 366]
Second: CC(Nc1nc(-c2cccnc2)nc2cc(-c3ccccc3F)ccc12)c1ccccn1 (centres unmarked) [Compound 371]
The IC50 of the first is higher: 1 to 10 µM for the first, under 1 µM for the second. The second is the more potent here.

`CC(Nc1nc(-c2cccnc2)nc2cc(-c3cc(F)ccc3F)ccc12)c1ccccn1` (centres unmarked) [Compound 368] and `CC(Nc1nc(-c2cccnc2)nc2cc(-c3ccc(F)c(F)c3)ccc12)c1ccccn1` (centres unmarked) [Compound 369] fall in the same range of IC50: 1 to 10 µM for the first, 1 to 10 µM for the second.

`CC(Nc1nc(-c2cccnc2)nc2cc(-c3cc(F)cc(F)c3)ccc12)c1ccccn1` (centres unmarked) [Compound 370] and `CNc1nc(-c2cnccn2)nc2cc(-c3cc(F)cc(F)c3)ccc12` [Compound 398] fall in the same range of IC50: 1 to 10 µM for the first, 1 to 10 µM for the second.

Compared with `Fc1cccc(-c2ccc3nc(-c4cccnc4)nc(NCc4ccccn4)c3c2)c1` [Compound 373], `Fc1ccc(-c2ccc3nc(-c4cccnc4)nc(NCc4ccccn4)c3c2)cc1` [Compound 374] is lower in IC50: over 10 µM for the first, 1 to 10 µM for the second.

`[2H]C([2H])([2H])Nc1nc(-c2cccnc2)nc2cc(-c3cc(F)ccc3F)ccc12` [Compound 390] and `CNc1nc(-c2cnccn2)nc2cc(-c3cc(F)ccc3F)ccc12` [Compound 396] fall in the same range of IC50: 1 to 10 µM for the first, 1 to 10 µM for the second.

`CNc1nc(-c2cnccn2)nc2cc(-c3ccccc3F)ccc12` [Compound 391] and `CNc1nc(-c2cnccn2)nc2cc(-c3ccc(F)cc3F)ccc12` [Compound 395] fall in the same range of IC50: 1 to 10 µM for the first, 1 to 10 µM for the second.

`CNc1nc(-c2cnccn2)nc2cc(-c3cccc(F)c3)ccc12` [Compound 392] and `CNc1nc(-c2cnccn2)nc2cc(-c3ccc(F)cc3)ccc12` [Compound 393] fall in the same range of IC50: 1 to 10 µM for the first, 1 to 10 µM for the second.

`CNc1nc(-c2cnccn2)nc2cc(-c3ccc(F)c(F)c3)ccc12` [Compound 397] and `CNc1nc(-c2cccnc2)nc2cc(-c3c(F)ccc(F)c3F)ccc12` [Compound 453] fall in the same range of IC50: 1 to 10 µM for the first, 1 to 10 µM for the second.

`CNc1nc(-c2cccnc2)nc2cc(OC(F)(F)F)c(-c3cccc(F)c3F)cc12` [Compound 404] and `CNc1nc(-c2cccnc2)nc2c(F)c(-c3cccc(F)c3F)ccc12` [Compound 515] fall in the same range of IC50: 1 to 10 µM for the first, 1 to 10 µM for the second.

First: Fc1ccc(-c2ccc3nc(-c4cccnc4)nc(N4CCC4)c3c2)c(F)c1 [Compound 411]
Second: Fc1ccc(-c2ccc3nc(-c4cccnc4)nc(N4CC(F)(F)C4)c3c2)c(F)c1 [Compound 415]
The IC50 of the first is lower: 1 to 10 µM for the first, over 10 µM for the second.

`COC1CN(c2nc(-c3cccnc3)nc3ccc(-c4ccc(F)cc4F)cc23)C1` [Compound 413] and `NC(=O)C1CN(c2nc(-c3cccnc3)nc3ccc(-c4ccc(F)cc4F)cc23)C1` [Compound 419] fall in the same range of IC50: 1 to 10 µM for the first, 1 to 10 µM for the second.

`Fc1ccc(-c2ccc3nc(-c4cccnc4)nc(-c4nccs4)c3c2)c(F)c1` [Compound 416] and `Fc1ccc(-c2ccc3nc(-c4cccnc4)nc(-c4cncs4)c3c2)c(F)c1` [Compound 417] cannot be ordered by IC50: under 1 µM for the first, under 1 µM for the second.

Compared with `Fc1ccc(-c2ccc3nc(-c4cccnc4)nc(N4CC(n5cccn5)C4)c3c2)c(F)c1` [Compound 420], `CNC(=O)C1CN(c2nc(-c3cccnc3)nc3ccc(-c4ccc(F)cc4F)cc23)C1` [Compound 423] is lower in IC50: over 10 µM for the first, 1 to 10 µM for the second. The second is the more potent here.

First: Fc1ccc(-c2ccc3nc(-c4cccnc4)nc(-c4cscn4)c3c2)c(F)c1 [Compound 421, 4-(6-(2,4-difluorophenyl)-2-(pyridin-3-yl)quinazolin-4-yl)thiazole]
Second: Fc1ccc(-c2ccc3nc(-c4cccnc4)nc(-c4ncco4)c3c2)c(F)c1 [Compound 425]
The IC50 of the first is lower: under 1 µM for the first, 1 to 10 µM for the second. The first is the more potent here.

`Cc1noc(C)c1-c1nc(-c2cccnc2)nc2ccc(-c3ccc(F)cc3F)cc12` [Compound 422] and `CNc1nc(-c2cccnc2)nc2ccc(-c3c(F)cccc3F)cc12` [Compound 458] fall in the same range of IC50: 1 to 10 µM for the first, 1 to 10 µM for the second.

`Fc1ccc(-c2ccc3nc(-c4cccnc4)nc(Nc4ccc(F)cn4)c3c2)cc1` [Compound 436] and `Cc1ccc(Nc2nc(-c3cccnc3)nc3ccc(-c4ccc(F)cc4)cc23)nc1` [Compound 441] fall in the same range of IC50: 1 to 10 µM for the first, 1 to 10 µM for the second.

`Fc1ccc(-c2ccc3nc(-c4cccnc4)nc(Nc4ccccn4)c3c2)cc1` [Compound 437] and `Fc1ccc(-c2ccc3nc(-c4cccnc4)nc(Nc4cc(F)ccn4)c3c2)cc1` [Compound 442] fall in the same range of IC50: 1 to 10 µM for the first, 1 to 10 µM for the second.

`Fc1ccc(-c2ccc3nc(-c4cccnc4)nc(Nc4cccc(F)n4)c3c2)cc1` [Compound 439] and `Fc1ccc(-c2ccc3nc(-c4cccnc4)nc(Nc4cncc(F)c4)c3c2)cc1` [Compound 440] fall in the same range of IC50: 1 to 10 µM for the first, 1 to 10 µM for the second.

`Fc1ccc(-c2ccc3nc(-c4cccnc4)nc(N4CCc5cccnc54)c3c2)cc1` [Compound 443] and `Cc1ccc2c(c1)N(c1nc(-c3cccnc3)nc3ccc(-c4cccc(F)c4F)cc13)CC2` [Compound 446] fall in the same range of IC50: 1 to 10 µM for the first, 1 to 10 µM for the second.

`CNc1nc(-c2cccnc2)nc2ccc(-c3cccc(C(=O)Nc4nncs4)c3)cc12` [Compound 447] and `CNc1nc(-c2cccnc2)nc2ccc(-c3cccc(-c4nccs4)c3)cc12` [Compound 473] cannot be ordered by IC50: under 1 µM for the first, under 1 µM for the second.

First: CNc1nc(-c2cccnc2)nc2ccc(-c3cccc4c3CNC4=O)cc12 [Compound 450]
Second: CNc1nc(-c2cccnc2)nc2ccc(-c3cccc4[nH]c(=O)oc34)cc12 [Compound 475]
The IC50 of the first is higher: 1 to 10 µM for the first, under 1 µM for the second. The second is the more potent here.

`CNc1nc(-c2cccnc2)nc2cc(-c3c(F)cc(F)cc3F)ccc12` [Compound 454] and `CNc1nc(-c2cccnc2)nc2ccc(-c3c(F)cc(F)cc3F)cc12` [Compound 457] fall in the same range of IC50: 1 to 10 µM for the first, 1 to 10 µM for the second.

`CNc1nc(-c2cccnc2)nc2cc(-c3c(F)cccc3F)ccc12` [Compound 455] and `CNc1nc(-c2cccnc2)nc2ccc(-c3c(F)ccc(F)c3F)cc12` [Compound 456] fall in the same range of IC50: 1 to 10 µM for the first, 1 to 10 µM for the second.

`CNc1nc(-c2cccnc2)nc2ccc(-c3ccc4oc(=O)[nH]c4c3)cc12` [Compound 462] and `CNc1nc(-c2cccnc2)nc2ccc(-c3ccc4c(c3)oc(=O)n4C)cc12` [Compound 470] cannot be ordered by IC50: under 1 µM for the first, under 1 µM for the second.

First: CNc1nc(-c2cccnc2)nc2ccc(-c3cnc(-c4ccccc4)s3)cc12 [Compound 464]
Second: CNc1nc(-c2cccnc2)nc2ccc(-c3nnc(-c4ccccc4)s3)cc12 [Compound 466]
The IC50 of the first is higher: over 10 µM for the first, 1 to 10 µM for the second. The second is the more potent here.

First: CNc1nc(-c2cccnc2)nc2ccc(-c3ccc4c(c3)N(C)C(=O)CO4)cc12 [Compound 467]
Second: CNc1nc(-c2cccnc2)nc2ccc(-c3ccc4c(c3)NC(=O)CO4)cc12 [Compound 469]
The IC50 of the first is higher: 1 to 10 µM for the first, under 1 µM for the second.

`CNc1nc(-c2cccnc2)nc2ccc(-c3ccc4c(c3)SCC(=O)N4)cc12` [Compound 471] and `CNc1nc(-c2cccnc2)nc2ccc(-c3ccc4c(c3)C(=O)NCCO4)cc12` [Compound 479] fall in the same range of IC50: 1 to 10 µM for the first, 1 to 10 µM for the second.

Going from `CNc1nc(-c2cccnc2)nc2ccc(-c3nnc(C)s3)cc12` [Compound 472] to `CNc1nc(-c2cccnc2)nc2ccc(-c3cccc4oc(=O)[nH]c34)cc12` [Compound 476], the IC50 falls from over 10 µM to under 1 µM. The second is the more potent here.

Compared with `CNc1nc(-c2cccnc2)nc2ccc(-c3cc4[nH]c(=O)oc4cc3F)cc12` [Compound 477], `CNc1nc(-c2cccnc2)nc2c(F)c(-c3ccc(F)c(F)c3)ccc12` [Compound 517] is higher in IC50: under 1 µM for the first, 1 to 10 µM for the second.

`CNc1nc(-c2cccnc2)nc2ccc(-c3ccc(F)cc3F)c(OC)c12` [Compound 487] and `CNc1nc(-c2cccnc2)nc2c(-c3ccc(F)cc3F)ccc(OC)c12` [Compound 490] fall in the same range of IC50: 1 to 10 µM for the first, 1 to 10 µM for the second.

Compared with `CNc1nc(-c2cccnc2)nc2ccc(-c3cc(F)cc(F)c3)c(OC)c12` [Compound 488], `CNc1nc(-c2cccnc2)nc2c(-c3cc(F)cc(F)c3)ccc(OC)c12` [Compound 491] is lower in IC50: over 10 µM for the first, 1 to 10 µM for the second. The second is the more potent here.

`CNc1nc(-c2cccnc2)nc2c(-c3cccc(C#N)c3)ccc(OC)c12` [Compound 489, 3—(5-methoxy-4-(methylamino)-2-(pyridin-3-yl)quinazolin-8-yl)benzonitrile dihydrochloride] and `CNc1nc(-c2cccnc2)nc2c(F)c(-c3cccc(C#N)c3)ccc12` [Compound 511] fall in the same range of IC50: 1 to 10 µM for the first, 1 to 10 µM for the second.

`CNc1nc(-c2cccnc2)nc2c(-c3cccc(F)c3F)ccc(OC)c12` [Compound 492] and `CNc1nc(-c2cccnc2)nc2c(-c3cc(F)ccc3F)ccc(OC)c12` [Compound 497] fall in the same range of IC50: 1 to 10 µM for the first, 1 to 10 µM for the second.

`CNc1nc(-c2cccnc2)nc2c(-c3ccc(F)c(F)c3)ccc(OC)c12` [Compound 496] and `CNc1nc(-c2cccnc2)nc2c(-c3cc(F)cc(OC)c3)ccc(OC)c12` [Compound 498] fall in the same range of IC50: 1 to 10 µM for the first, 1 to 10 µM for the second.

First: CNc1nc(-c2cccnc2)nc2c(F)c(-c3ccc(F)cc3)ccc12 [Compound 505]
Second: CNc1nc(-c2cccnc2)nc2c(F)c(-c3ccc(C#N)cc3)ccc12 [Compound 512]
The IC50 of the first is higher: 1 to 10 µM for the first, under 1 µM for the second.

`CNc1nc(-c2cccnc2)nc2c(F)c(-c3cccc(F)c3)ccc12` [Compound 510] and `CNc1nc(-c2cccnc2)nc2c(F)c(-c3cc(F)ccc3F)ccc12` [Compound 514] fall in the same range of IC50: 1 to 10 µM for the first, 1 to 10 µM for the second.

`CNc1nc(-c2cccnc2)nc2c(F)c(-c3ccccc3F)ccc12` [Compound 513] and `CNc1nc(-c2cccnc2)nc2c(F)c(-c3ccc(OC)cc3)ccc12` [Compound 518] fall in the same range of IC50: 1 to 10 µM for the first, 1 to 10 µM for the second.

Work on `CNc1nc(-c2cccnc2)nc2c(F)c(-c3cc(F)cc(F)c3)ccc12` [Compound 516] yielded an IC50 of under 1 µM.
